Experimental data taken from ChEMBL document CHEMBL5030542, “Pillar[5]arene-Based Polycationic Glyco[2]rotaxanes Designed as Pseudomonas aeruginosa Antibiofilm Agents” (J Med Chem, 2021).
The source made the active and inactive calls. The calls are words filed in the database; no cut-off is given here.

Legend:
[1] = Binding affinity to recombinant Pseudomonas aeruginosa LecA expressed in Escherichia coli assessed as dissociation constant by isothermal titration calorimetry
Pseudomonas aeruginosa [2] = assay: Binding affinity to recombinant Pseudomonas aeruginosa LecA expressed in Escherichia coli assessed as change in enthalpy by isothermal titration calorimetry
Pseudomonas aeruginosa [3] = assay: Binding affinity to recombinant Pseudomonas aeruginosa LecA expressed in Escherichia coli assessed as gibbs free energy change by isothermal titration calorimetry
Pseudomonas aeruginosa [4] = assay: Binding affinity to recombinant Pseudomonas aeruginosa LecA expressed in Escherichia coli assessed as change in entropy by isothermal titration calorimetry
Pseudomonas aeruginosa [5] = assay: Anti-bioflim activity against Pseudomonas aeruginosa PAO1 assessed as inhibition of bioflim formation incubated for 24 hrs by crystal violet staining based assay; assay type: functional
[6] = biological target: Fucose-binding lectin PA-IIL (Pseudomonas aeruginosa (strain ATCC 15692 / DSM 22644 / CIP 104116 / JCM14847 / LMG 12228 / 1C / PRS 101 / PAO1)) (UniProt Q9HYN5); assay: Binding affinity to recombinant Pseudomonas aeruginosa LecB expressed in Escherichia coli assessed as change in entropy by isothermal titration calorimetry
Fucose-binding lectin PA-IIL (Pseudomonas aeruginosa (strain ATCC 15692 / DSM 22644 / CIP 104116 / JCM14847 / LMG 12228 / 1C / PRS 101 / PAO1)), sequence (Q9HYN5 as listed by the source): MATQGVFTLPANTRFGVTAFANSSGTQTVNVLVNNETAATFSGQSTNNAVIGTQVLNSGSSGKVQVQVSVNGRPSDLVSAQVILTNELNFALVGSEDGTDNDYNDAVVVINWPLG

[7] = biological target: Fucose-binding lectin PA-IIL (Pseudomonas aeruginosa (strain ATCC 15692 / DSM 22644 / CIP 104116 / JCM14847 / LMG 12228 / 1C / PRS 101 / PAO1)) (UniProt Q9HYN5); assay: Binding affinity to recombinant Pseudomonas aeruginosa LecB expressed in Escherichia coli assessed as gibbs free energy change by isothermal titration calorimetry
Pseudomonas aeruginosa [8] = assay: Anti-bioflim activity against Pseudomonas aeruginosa PAO1 assessed as inhibition of bioflim formation measured at MBIC50 concentration incubated for 24 hrs by crystal violet staining based assay; assay type: functional
[9] = biological target: Fucose-binding lectin PA-IIL (Pseudomonas aeruginosa (strain ATCC 15692 / DSM 22644 / CIP 104116 / JCM14847 / LMG 12228 / 1C / PRS 101 / PAO1), UniProt Q9HYN5); assay: Binding affinity to recombinant Pseudomonas aeruginosa lecB expressed in Escherichia coli assessed as dissociation constant by isothermal titration calorimetry
Fucose-binding lectin PA-IIL, sequence (Q9HYN5 whole entry): as the sequence (Q9HYN5 as listed by the source) above

[10] = biological target: Fucose-binding lectin PA-IIL (Pseudomonas aeruginosa (strain ATCC 15692 / DSM 22644 / CIP 104116 / JCM14847 / LMG 12228 / 1C / PRS 101 / PAO1)) (UniProt Q9HYN5); assay: Binding affinity to recombinant Pseudomonas aeruginosa LecB expressed in Escherichia coli assessed as change in enthalpy by isothermal titration calorimetry
Pseudomonas aeruginosa [11] = assay: Antibacterial activity against Pseudomonas aeruginosa PAO1 assessed as inhibition of bacterial growth for complete inhibition of bacterial growth incubated for 24 hrs; assay type: functional

deltaH (Pseudomonas aeruginosa [2]) [kcal/mol]	deltaG (Pseudomonas aeruginosa [3]) [kcal/mol]	deltaS (Pseudomonas aeruginosa [4]) [kcal/mol]	deltaS [6] [kcal/mol]	deltaG [7] [kcal/mol]	-TΔS (Pseudomonas aeruginosa [4]) [kcal/mol]	Kd [9] [nM]	deltaH [10] [kcal/mol]	MIC (Pseudomonas aeruginosa [11]) [µM]	SMILES	Kd [1] [nM]	MBIC50 (Pseudomonas aeruginosa [5]) [µM]	MBIC50 (Pseudomonas aeruginosa [8])	inhibition (INH) (Pseudomonas aeruginosa [8]) [%]
-4.54	-5.81	–	–	–	–	–	–	–	CO[C@@H]1O[C@H](CO)[C@H](O)[C@H](O)[C@H]1O	55700	–	–	–
-37.5	-9.35	28.2	–	–	–	–	–	–	OC[C@H]1O[C@@H](OCc2cn(CCOc3cc4c(OCCn5cc(CO[C@@H]6O[C@H](CO)[C@H](O)[C@H](O)[C@H]6O)nn5)cc3Cc3cc(OCCn5cc(CO[C@@H]6O[C@H](CO)[C@H](O)[C@H](O)[C@H]6O)nn5)c(cc3OCCn3cc(CO[C@@H]5O[C@H](CO)[C@H](O)[C@H](O)[C@H]5O)nn3)Cc3cc(OCCn5cc(CO[C@@H]6O[C@H](CO)[C@H](O)[C@H](O)[C@H]6O)nn5)c(cc3OCCn3cc(CO[C@@H]5O[C@H](CO)[C@H](O)[C@H](O)[C@H]5O)nn3)Cc3cc(OCCn5cc(CO[C@@H]6O[C@H](CO)[C@H](O)[C@H](O)[C@H]6O)nn5)c(cc3OCCn3cc(CO[C@@H]5O[C@H](CO)[C@H](O)[C@H](O)[C@H]5O)nn3)Cc3cc(OCCn5cc(CO[C@@H]6O[C@H](CO)[C@H](O)[C@H](O)[C@H]6O)nn5)c(cc3OCCn3cc(CO[C@@H]5O[C@H](CO)[C@H](O)[C@H](O)[C@H]5O)nn3)C4)nn2)[C@H](O)[C@@H](O)[C@H]1O	145	–	–	–
-25.1	-8.46	–	6.07	-8.63	16.6	474	-14.7	> 150	C[C@@H]1O[C@@H](OCCOCCn2cc(COCC(COCc3cn(CCOCCO[C@@H]4O[C@@H](C)[C@@H](O)[C@@H](O)[C@@H]4O)nn3)N=[N+]=[N-])nn2)[C@@H](O)[C@H](O)[C@@H]1O.OC[C@H]1O[C@@H](OCc2cn(CCCOc3cc4c(OCCn5cc(CO[C@@H]6O[C@H](CO)[C@H](O)[C@H](O)[C@H]6O)nn5)cc3Cc3cc(OCCn5cc(CO[C@@H]6O[C@H](CO)[C@H](O)[C@H](O)[C@H]6O)nn5)c(cc3OCCn3cc(CO[C@@H]5O[C@H](CO)[C@H](O)[C@H](O)[C@H]5O)nn3)Cc3cc(OCCn5cc(CO[C@@H]6O[C@H](CO)[C@H](O)[C@H](O)[C@H]6O)nn5)c(cc3OCCn3cc(CO[C@@H]5O[C@H](CO)[C@H](O)[C@H](O)[C@H]5O)nn3)Cc3cc(OCCn5cc(CO[C@@H]6O[C@H](CO)[C@H](O)[C@H](O)[C@H]6O)nn5)c(cc3OCCn3cc(CO[C@@H]5O[C@H](CO)[C@H](O)[C@H](O)[C@H]5O)nn3)Cc3cc(OCCCn5cc(CO[C@@H]6O[C@H](CO)[C@H](O)[C@H](O)[C@H]6O)nn5)c(cc3OCCn3cc(CO[C@@H]5O[C@H](CO)[C@H](O)[C@H](O)[C@H]5O)nn3)C4)nn2)[C@H](O)[C@@H](O)[C@H]1O	646	>150	inactive	–
–	–	–	–	–	–	–	–	–	NC[C@H]1O[C@H](O[C@H]2[C@H](O)[C@@H](O[C@H]3O[C@H](CO)[C@@H](O)[C@H](N)[C@H]3O)[C@H](N)C[C@@H]2N)[C@H](N)C[C@@H]1O [TOBRAMYCIN]	–	2	–	92
